PMC6452631 (Journal of medicinal chemistry, 2017)
One block for each compound: values may come before it. Peptide text beside a SMILES is read from it. * marks the point of attachment. Cbz = O=C(OCc1ccccc1)*; Acryloyl = C=CC(=O)*

How the values were obtained:
[1] = biological target: gplTG2; conditions: cited from earlier work; for K1 values: gplTG2, in words
[2] = biological target: T1, hTG2 (Homo sapiens, UniProt P21980); test: Colorimetric transamidase activity assay
T1 sequence (P21980 1-687): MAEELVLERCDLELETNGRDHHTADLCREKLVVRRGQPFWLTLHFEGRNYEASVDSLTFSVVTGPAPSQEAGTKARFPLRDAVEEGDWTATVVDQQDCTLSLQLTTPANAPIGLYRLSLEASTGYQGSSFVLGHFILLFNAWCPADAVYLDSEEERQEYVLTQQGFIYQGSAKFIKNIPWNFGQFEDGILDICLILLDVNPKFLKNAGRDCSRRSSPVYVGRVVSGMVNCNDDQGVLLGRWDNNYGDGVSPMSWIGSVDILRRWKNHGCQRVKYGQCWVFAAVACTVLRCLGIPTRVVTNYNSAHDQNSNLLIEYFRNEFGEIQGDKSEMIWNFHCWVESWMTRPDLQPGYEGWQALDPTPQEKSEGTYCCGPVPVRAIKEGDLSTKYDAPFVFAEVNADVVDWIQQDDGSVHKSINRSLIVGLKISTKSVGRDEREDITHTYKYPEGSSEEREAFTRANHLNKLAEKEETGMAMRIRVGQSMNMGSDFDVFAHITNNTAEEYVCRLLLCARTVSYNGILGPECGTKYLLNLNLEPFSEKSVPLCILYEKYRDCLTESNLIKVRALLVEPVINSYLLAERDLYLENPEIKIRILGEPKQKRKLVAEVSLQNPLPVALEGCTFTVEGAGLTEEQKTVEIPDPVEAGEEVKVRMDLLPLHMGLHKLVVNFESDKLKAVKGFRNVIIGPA

[3] = biological target: T1, hTG2; test: In vitro GTP binding assay; conditions: inhibitor at 2KI, 30 min, 25 °C; 3 μM BODIPY GTP-γ-S
[4] = biological target: T1, hTG2; conditions: pH 6.5
[5] = system: epidermal cancer stem (ECS) cells (SCC-13); test: Cell invasion assay; format: cell-based, human
[6] = biological target: T1, hTG2; test: Inhibition irreversibility; format: biochemical; conditions: compared to uninhibited hTG2
[7] = system: mouse xenograft tumors initiated by injection of cancer stem cells; conditions: intraperitoneal injection, 20 mg/kg; cited from earlier work
[8] = system: epidermal cancer stem (ECS) cells; conditions: cited from earlier work

kinact less than that of 13 ([2]; hTG2): more than 3 fold
SMILES: C=CC(=O)NCCCC[C@H](NC(=O)OCc1ccccc1)C(=O)N1CCN(S(=O)(=O)c2cccc3ccccc23)CC1 [Compound 30, (S)-Benzyl 6-Acrylamido-1-(4-(naphthalen-1-ylsulfonyl)piperazin-1-yl)-1-oxohexan-2-yl-carbamate]

GTP binding ability of hTG2 after incubation with inhibitor [3]: abolishing GTP binding nearly completely | kinact/KI [2]: > 1670 M⁻¹ s⁻¹
SMILES: C=CC(=O)NCCCC[C@H](NC(=O)OCc1ccccc1)C(=O)N1CCN(C(=O)c2cccc3ccccc23)CC1 [Compound 49, (S)-Benzyl (1-(4-(1-Naphthoyl)piperazin-1-yl)-6-acrylamido-1-ox-ohexan-2-yl)carbamate]

recovered hTG2 activity after filtration (10 kDa cutoff) and dilution [6]: no recovered activity | GTP binding ability of hTG2 after incubation with inhibitor [3]: abolishing GTP binding nearly completely | kinact/KI [2]: > 1670 M⁻¹ s⁻¹ | reduction in the inhibition binding constant compared to 3 ([2]; hTG2): greater than 2 fold
SMILES: C=CC(=O)NCCCC[C@H](NC(=O)OCc1ccccc1)C(=O)N1CCN(S(=O)(=O)c2cccc3c(N(C)C)cccc23)CC1 [Compound 13, (S)-Benzyl (6-Acrylamido-1-(4-((5-(dimethylamino)naphthalen-1-yl)sulfonyl)piperazin-1-yl)-1-oxohexan-2-yl)carbamate]
Hill slope ([5]; three-parameter sigmoidal fit of invasion data, maximum fixed at 100): 1.16 ± 0.13

The remaining lines, values behind:

SMILES: C=CC(=O)NCCCC[C@H](NC(=O)OCc1ccccc1)C(=O)NCC(=O)O [Compound 2, (S)-2-(6-Acrylamido-2-(((benzyloxy)carbonyl)amino)-hexanamido)acetic Acid] (Cbz-Lys(Acryloyl)-Gly-OH)
K1 values [1]: high nanomolar range | efficiency constants (kinact/KI) ([1]; gplTG2): 10^6 M^−1 min^−1

SMILES: C=CC(=O)NCCCC[C@H](NC(=O)OCc1ccccc1)C(=O)O [Compound 1, (S)-6-Acrylamido-2-(((benzyloxy)carbonyl)amino)hexanoic Acid]
K1 values [1]: high nanomolar range

SMILES: NC(=O)CI [iodoacetamide, reference compound]
GTP binding ability of hTG2 after incubation with inhibitor [3]: did not perturb its GTP-binding ability | inhibition of hTG2 acyltransferase activity ([2]; in words): irreversible inhibition

SMILES: C=CC(=O)NCCCC[C@H](NC(=O)OCc1ccccc1)C(N)=O [Compound 4, (S)-Benzyl-(6-acrylamido-1-amino-1-oxohexan-2-yl)carbamate]
GTP binding ability of hTG2 after incubation with inhibitor [3]: able to abolish GTP binding

SMILES: C=CC(=O)NCCCC[C@H](NC(=O)OCc1ccccc1)C(=O)N1CCOCC1 [Compound 59]
kinact [4]: 0.0245 s⁻¹

SMILES: C=CC(=O)NCCCC[C@H](NC(=O)OCc1ccccc1)C(=O)NCCOCCOCCNS(=O)(=O)c1cccc2c(N(C)C)cccc12 [Compound 3, (S)-Benzyl-(1-((5-(dimethylamino)naphthalene)-1-sulfonamido)-10,17-dioxo-3,6-dioxa-9,16-diazanonadec-18-en-11-yl)carbamate]
kinact ([1]; gplTG2): 0.483 min⁻¹ | EC50 ([5]; Homo sapiens, SCC-13, 18 h, read-out: EC50, inhibition of ECS cell invasion): > 20 µM | growth of mouse xenograft tumors [7]: reduced the growth | ECS cell proliferation and survival ([8]; 20 μM): reduced ECS cell proliferation and survival | effect in TG2 knockout ECS cells ([8]; TG2 knockout ECS cells): no effect | increase in overall efficiency (kinact/KI), hTG2 versus gplTG2 ([2]; hTG2 compared to gplTG2): 5 fold
